According to US20030113330A1, “Methods for treating pulmonary fibrosis” (priority 1999, published 2003):
In brackets after ≈: the same amount, converted by molar mass. Entries after “also recorded” stand apart in the source; their conditions may differ. Where a SMILES comes first, the peptide text is derived from it. The star is where a group is joined. Cbz = O=C(OCc1ccccc1)*; CH2F = FC*

Columns and labels:
A549 cells [1] = assay: FAS-induced apoptosis (activating anti-FAS antibody CH-11) in A549 cells, ISEL / nuclear fragmentation; format: cell-based, human; conditions: for inhibition of Fas-induced apoptosis of A549 cells: lisinopril 500 ng/ml
Procedure: Cell Culture. […] Cells were seeded on 12 mm sterile glass cover slips in 24-well chambers at a density of 20,000 cells per well.
Fluorescence Detection of Apoptosis. […] J. Physiol. […] In these assays detached cells were retained by centrifugation of the 24-well culture vessels during fixation with 70% ethanol. In situ end-labeling of fragmented DNA (ISEL) was conducted as described in Gorczyka et al., Canc. Res. 53:1945-1951 (1993). Briefly, ethanol was removed by rinsing cover slips in distilled water for at least 10 minutes. […] The sections were rinsed thoroughly five times with Buffer A and three additional times in 0.5 M PBS. Incorporated bio-UTP was detected by incubation for one hour at 37° C. with avidin-rhodamine; the cover slips were then rinsed in distilled water three times and mounted under Fluoromount Solution (Southern Biotechnology Associates, Birmingham, Ala.).
Spontaneous or stimulated apoptosis was quantitated as described in Uhal et al., Am. J. Physiol. 269:L819-L828 (1995), in the human lung epithelial cell line A549 by fluorescence detection of chromatin condensation and nuclear fragmentation. The human lung epithelial cell line A549 was cultured on glass cover slips as described in Uhal, et al., Am. J. Physiol. 269:L819-L828 (1995). At the end of the test period, detached cells were retained by centrifuging the culture vessel during fixation of cells in 70% ethanol. Fixed cells were incubated for 30 minutes with 5 ug/ml propidium iodide (PI) in PBS containing DNAse-free RNAse; under these conditions, red fluorescence (>570 nm) is specific for DNA. As in Uhal et al., Am. J. Physiol. 269:L819-L828 (1995), apoptotic cells were identified by the presence of discrete nuclear fragments containing condensed chromatin. Human lung A549 cells were cultured for 20 h in the presence of equivalent concentrations (500 ng/ml) of monoclonal antibody CH-11 (FAS mAb), purified IgM fraction of nonimmune mouse immunoglobulins (IgM), monoclonal antibody 5F-7 (mAb2), and monoclonal antibody 5F-9 (mAb3). Apoptotic cells were scored by the nuclear morphology assay discussed above. A significant difference (p<0.01 compared to control (no additives)), was observed between the means±S.E.M. (at least 4 determinations per condition) of the cells exposed to FAS mAb as compared to the control or other antibody treatments as determined by ANOVA and Dunnett's test. […] J. Physiol.
Ethanol-fixed A549 cells on glass cover slips were subjected to ISEL labeling of fragmented DNA. DNA fragments labeled with biotinylated UTP were detected with rhodamine-conjugated avidin. A549 cells were exposed to either 500 ng/ml anti-FAS antibody (CH-11) under the same conditions as described above or in the presence of 50 ng/ml captopril. […] ISEL-positive A549 cells were quantitated in at least four separate culture vessels exposed to the anti-FAS antibody CH-11 at 500 ng/ml and/or 50 ng/ml captopril.
A549 cells were exposed to anti-FAS antibody CH-11 as described above, in the presence of 0.005 ng/ml (5 pg/ml) to 50 ng/ml captopril. Inhibition of apoptosis was detected as the decrease in ISEL-positive cells, scored as described above. […] Inhibition of apoptosis was maximal (approximately 85-90%) at 50 ng/ml captopril, a concentration known to be physiologically attainable in humans and to be maximally inhibitory for ACE. See Duchin et al., Clin. Pharmacokinet. 14:241-259 (1988).
Cell Culture and Detection of Apoptosis. […] Ibarra-Sunga, C. Gidea, E. Ang, S. Deshmukh, G. Chaudhary, J. Baraboutis, G. Filippatos and B. D. Uhal, Angiotensin II induces apoptosis in human and rat alveolar epithelial cells. Am. J. Physiol. 276:L885-L889 (1999)). […] J. Physiol. […] As in the above Examples, the induction of apoptosis was verified by Annexin V binding and generation of DNA strand breaks […]

[2] = system: primary alveolar epithelial cells (AEC); assay: Bleomycin-induced apoptosis of primary AEC in vitro
Procedure: Lung Cell Isolation and Detection of Apoptosis In Vitro. Primary alveolar epithelial cells (AEC) were isolated from adult male Wistar rats as described above. The primary cells were studied at day two of culture, a time at which they are type II cell-like by accepted morphologic and biochemical criteria, see Paine et al., Am. J. Physiol. […] All cells were seeded in 24-well or 6-well chambers, and all experiments were conducted at subconfluent densities of 80-90% in serum-free Ham's F12 medium. Test reagents were diluted with Ham's F12 medium and were applied for 20 hours at 37° C. in a 5% CO2 incubator.
Detection of apoptotic cells with propidium iodide (PI) was conducted as described above, following digestion of ethanol-fixed cells with DNAse-free RNAse in PBS containing 5 ug/ml PI.
Apoptosis was detected as described above.

A549 cells [3] = assay: FAS-induced apoptosis (activating anti-FAS antibody CH-11) in A549 cells, ISEL / nuclear fragmentation; format: cell-based, human; conditions: CH-11 200 ng/ml; lisinopril 500 ng/ml, saralasin 5 mg/ml

Question: For `COc1ccc2c(c1OCc1ccccc1)C[C@@H](C(=O)O)N(C(=O)C(c1ccccc1)c1ccccc1)C2` [PD126055], which “inhibition of Fas-induced apoptosis of A549 cells” value (from here on “inhibition … of A549 cells”) (A549 cells [1]) is on record?
Answer: unable to significantly inhibit

Question: How did the “inhibition … of A549 cells” value (A549 cells [1]) turn out when `CCc1nc2c(C)cc(C)nc2n1Cc1ccc(-c2ccccc2-c2nn[nH]n2)cc1` [L158809] was run?
Answer: could block

Question: Which “effect on FAS-induced apoptotic indexes (morphology, DNA fragmentation, ISEL-positive cells)” value (A549 cells [1]; 50 ng/ml captopril with anti-FAS CH-11 500 ng/ml) does the source give for `C[C@H](CS)C(=O)N1CCC[C@H]1C(=O)O` [captopril] here?
Answer: completely abrogated; also recorded: essentially abolished

Question: What about the IC50 (A549 cells [1]; Homo sapiens, A549, 20 h, read-out: IC50 of inhibition of FAS-induced apoptosis (ISEL labeling)) of the same compound?
Answer: 0.07 ng/mL (≈ 0.322 nM)

Question: What about the inhibition at 0.05 µg/mL (A549 cells [1]; Homo sapiens, A549, read-out: maximal inhibition of apoptosis (decrease in ISEL-positive cells)) of the same compound?
Answer: 85 to 90%

Question: What about the “concentration at which inhibition of FAS-induced ISEL labeling was measurable” value (A549 cells [1]; anti-FAS CH-11) of the same compound?
Answer: 5 pg/mL

Question: And the “effect on basal ISEL labeling” value (A549 cells [1]; captopril alone)?
Answer: no significant effect

Question: And the inhibition at 0.5 µg/mL ([2]; Rattus norvegicus, Epithelial cell, read-out: inhibition of bleomycin-induced apoptosis of AEC in vitro)?
Answer: 76%

Question: Which “inhibition of bleomycin-induced apoptosis of AEC in vitro” value ([2]; bleomycin 50 uM, captopril 500 ng/ml, ZVAD-fmk 60 uM, aurintricarboxylic acid 10 uM) does the source give for `COC(=O)C[C@H](NC(=O)[C@H](C)NC(=O)[C@@H](NC(=O)OCc1ccccc1)C(C)C)C(=O)CF` [ZVAD-fmk, N-benzylcarboxy-Val-Ala-Asp-[O-Me]-CH2F] (Cbz-Val-Ala-Asp(OMe)-CH2F) here?
Answer: 78%

Question: What does the source list for `CNCC(=O)N[C@@H](CCCN=C(N)N)C(=O)N[C@H](C(=O)N[C@@H](Cc1ccc(O)cc1)C(=O)N[C@H](C(=O)N[C@@H](Cc1cnc[nH]1)C(=O)N1CCC[C@H]1C(=O)N[C@@H](C)C(=O)O)C(C)C)C(C)C` [saralasin]?
Answer: inhibition of FAS-induced apoptosis (A549 cells [3]): 71%; inhibition of AEC apoptosis in response to Fas (A549 cells [1]; cell type not given): 93%

Question: With `NCCCC[C@H](N[C@@H](CCc1ccccc1)C(=O)O)C(=O)N1CCC[C@H]1C(=O)O` [lisinopril] as the compound, how does the “inhibition of FAS-induced apoptosis” value (A549 cells [3]) read?
Answer: 61%

Question: What about the inhibition at 0.5 µg/mL (A549 cells [1]; Homo sapiens, A549 or primary rat AEC, lisinopril 0.5 μg/ml, saralasin 5 μg/ml, read-out: maximal inhibition of apoptosis in response to either Fas activator) of the same compound?
Answer: 82%

Question: And the “inhibition … of A549 cells” value (A549 cells [1])?
Answer: significantly inhibited
